Columns and labels:
[1] = system: GABAA receptor alpha4beta1delta (Homo sapiens); test: Positive allosteric modulation of human recombinant alpha4beta1delta GABAA receptor expressed in HEK293 cells assessed as GABA-induced response in presence of GABA EC20 by FMP assay
[2] = target: Gamma-aminobutyric acid receptor subunit alpha-4/beta-1/delta (Homo sapiens, UniProt O14764+P18505+P48169); test: Positive allosteric modulation of human recombinant alpha4beta1delta GABAA receptor expressed in delta-HEK cells assessed as potentiation of GABA-induced response in presence of GABA EC20 by FMP assay; assay type: cell-based, HEK293
Chain of Gamma-aminobutyric acid receptor subunit alpha-4/beta-1/delta (P48169 whole entry): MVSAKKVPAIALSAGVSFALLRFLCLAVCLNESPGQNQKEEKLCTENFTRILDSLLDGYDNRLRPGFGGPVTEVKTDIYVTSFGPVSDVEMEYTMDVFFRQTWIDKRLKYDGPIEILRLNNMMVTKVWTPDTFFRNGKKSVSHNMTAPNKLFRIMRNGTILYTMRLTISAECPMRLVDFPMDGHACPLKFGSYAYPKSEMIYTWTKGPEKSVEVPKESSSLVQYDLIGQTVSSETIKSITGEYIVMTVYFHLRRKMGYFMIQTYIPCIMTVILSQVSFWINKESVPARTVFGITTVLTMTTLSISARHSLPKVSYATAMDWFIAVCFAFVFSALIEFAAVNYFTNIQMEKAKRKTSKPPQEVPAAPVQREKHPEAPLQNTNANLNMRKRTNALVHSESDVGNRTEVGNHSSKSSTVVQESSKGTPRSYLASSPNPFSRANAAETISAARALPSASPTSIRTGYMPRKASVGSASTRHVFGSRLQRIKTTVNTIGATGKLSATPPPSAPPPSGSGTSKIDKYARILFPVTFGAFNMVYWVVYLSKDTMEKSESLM
Chain of Gamma-aminobutyric acid receptor subunit alpha-4/beta-1/delta (O14764 whole entry): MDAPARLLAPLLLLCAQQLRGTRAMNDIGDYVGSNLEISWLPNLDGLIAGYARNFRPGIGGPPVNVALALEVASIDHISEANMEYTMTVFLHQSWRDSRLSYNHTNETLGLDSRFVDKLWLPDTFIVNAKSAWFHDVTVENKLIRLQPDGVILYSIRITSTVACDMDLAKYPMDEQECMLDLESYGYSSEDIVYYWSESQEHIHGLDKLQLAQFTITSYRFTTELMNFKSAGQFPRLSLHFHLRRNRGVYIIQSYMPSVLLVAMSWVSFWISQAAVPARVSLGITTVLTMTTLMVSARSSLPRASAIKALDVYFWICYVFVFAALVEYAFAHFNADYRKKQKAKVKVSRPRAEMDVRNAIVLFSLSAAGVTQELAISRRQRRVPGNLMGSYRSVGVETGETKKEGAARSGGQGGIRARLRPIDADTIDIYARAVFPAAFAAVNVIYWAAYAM
Chain of Gamma-aminobutyric acid receptor subunit alpha-4/beta-1/delta (P18505 whole entry): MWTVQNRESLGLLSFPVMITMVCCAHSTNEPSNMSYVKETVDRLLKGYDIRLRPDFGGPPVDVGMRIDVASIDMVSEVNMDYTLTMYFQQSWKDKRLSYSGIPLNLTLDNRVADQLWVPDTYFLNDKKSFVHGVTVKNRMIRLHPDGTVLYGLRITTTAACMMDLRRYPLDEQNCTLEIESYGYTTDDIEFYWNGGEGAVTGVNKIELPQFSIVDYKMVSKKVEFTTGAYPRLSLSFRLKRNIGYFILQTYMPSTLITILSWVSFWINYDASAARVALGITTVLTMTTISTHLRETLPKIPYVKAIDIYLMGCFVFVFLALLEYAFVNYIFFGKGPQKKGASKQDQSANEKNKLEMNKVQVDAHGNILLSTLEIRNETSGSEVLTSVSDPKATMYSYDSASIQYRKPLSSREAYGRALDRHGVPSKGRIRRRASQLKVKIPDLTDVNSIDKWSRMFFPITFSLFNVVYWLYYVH

[3] = Solubility of compound; assay type: physicochemical

SMILES	EC50 [1] [nM]	EC50 [2] [nM]	solubility [3]
Cc1ccc2nc(-c3cccs3)c(NC(=O)c3ccc(Cl)cc3)n2c1	162	160	–
O=C(Nc1c(-c2cccs2)nc2ccccn12)c1ccc(Cl)cc1	977	980	–
Clc1ccc(-c2noc(-c3c(-c4ccccc4)nc4ccccn34)n2)cc1	–	–	Insoluble
O=C(Nc1c(-c2cccs2)nc2ccc(Br)cn12)c1ccc(Cl)cc1	60.3	60	–

Further compounds by falling EC50 [1], results first:

EC50 [1] [nM]	EC50 [2] [nM]	solubility [3]	SMILES
1910	1920	–	O=C(Nc1c(-c2cccs2)nc2ccc(F)cn12)c1ccc(Cl)cc1
1100	1100	–	O=C(Nc1c(-c2cccs2)nc2ccc(C(F)(F)F)cn12)c1ccc(Cl)cc1
145	140	–	O=C(Nc1c(-c2cccs2)nc2ccc(Cl)cn12)c1ccc(Cl)cc1
